According to patent US20160096826A1, “CO-CRYSTALS OF LAPATINIB MONOACID SALTS” (priority 2014, published 2016):
Counter-ions that a name gives are not always drawn. Like-named read-outs stand apart in the source and are kept apart here.

What was measured:
in vivo [1] = conditions: male, Wistar, rat, male rats; for AUC(0-t): AUCt; for Cmax: suspension in hydroxypropylmethylcellulose:Tween 80 in WFI, plasma Lapatinib; for bioavailability: F (absolute bioavailability), oral 30 mg/kg AUCt compared with iv 10 mg/kg; for Vd/F: Vz/F; for MRT last: MRTt (mean residence time)
Description: (§1) For the oral administration, the compounds were suspended in hydroxypropylmethylcellulose:Tween 80 (0.5%:0.1%) in WFI to reach a concentration of 3 mg parent compound/mL in all cases.
(§2) A bioanalytical UPLC®-MS/MS method was characterized and allowed the determination of the Lapatinib in rat plasma; the precision and accuracy of the QC samples was appropriate according to international guidelines.
(§3) A non-compartmental pharmacokinetic analysis was carried out with mean plasma concentration-time curves using WinNonlin® Professional Version 6.3 (Phoenix Version 1.3, Pharsight Corporation):
(§4) For the preparation of the intravenous solution and the oral suspensions, the correction factor and the purity were applied for all compounds. Blood samples were collected from all animals at all scheduled time points.
(§5) The study samples were analyzed according to the following UPLC®-MS/MS method:

[2] = Stability at 74% RH at 40° C. (XRPD)
[3] = Model-based PK analysis (NONMEM), oral administration, two parallel input processes; conditions: for AUC0INF / Absolute Bioavail. / Cmax / MRTINF / Tmax: derived from PK modelling, oral
Description: (§6) Therefore, the absorption process was described by two parallel inputs processes. The first input characterized a fast-release component (with a ka1 rate of absorption) while the second input characterized a delayed release of the drug (with a ka2 rate of absorption). The fraction of the oral dose associated with the first absorption component was estimated by the F parameter, while the remaining fraction of the drug (1-F) was assumed to be released in the second absorption process. The F fraction of the dose was immediately release (lag1) while the release of the remaining (1-F) fraction occurred with an estimated lag time (lag2).
(§7) The disposition and elimination PK parameters of Lapatinib (k12, k21, k13, k31, and kel) for the different oral formulations were fixed to the ones estimated in the IV model due to the limited PK samples available for a proper characterization of these parameters after oral administration.

[4] = Stability in water suspension followed by XRPD; format: physicochemical; conditions: 40 volumes of water, room temperature, XRPD at 1, 4 and 24 hours
Description: The three suspensions were stirred at room temperature in 40 volumes of water and the transformation of the product was followed by XRPD at 1 hour, 4 hours and 24 hours.

[5] = male rats; for Cmax: suspension in hydroxypropylmethylcellulose:Tween 80 in WFI, plasma Lapatinib
Description: as §1, §2, §3, §4, §5

[6] = Intravenous bolus pharmacokinetics, non-compartmental analysis, 10 mg Lapatinib/kg; format: in vivo; conditions: Wistar, rat, plasma, male rats
Description: as §3

[7] = Tyverb EPAR; cited from earlier work
in vivo [8] = conditions: Wistar, rat, plasma, iv, 10 mg/kg
in vivo [9] = conditions: Wistar, rat, plasma, po, 30 mg/kg
Description: as §6, §7

[10] = Model-based PK analysis (NONMEM), IV administration, three-compartment model; conditions: Group 1
[11] = pKa values for the FDA co-crystal criterion; format: physicochemical; conditions: approximated by comparison with Gefitinib and Erlotinib; read-out: pKa of the second less basic function
Description: As further confirmation that the products of the present inventions are co-crystals and not simply salts, the criterion adopted by the FDA Guidelines of April 2013 (see below) is here reported: the active ingredient-excipient complex should be classified as co-crystal if ΔpKa of the two species is <1.

[12] = cited from earlier work
[13] = coformer acid; cited from earlier work
[14] = plasma, po, 30 mg/kg, oral 30 mg/kg
[15] = listed as co-crystal Lapatinib monotosylate:caproic acid (1:2)
[16] = listed as co-crystal Lapatinib monotosylate:caprylic acid (1:2)
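For Cmax/AUCt (apparent absorption rate) in this document: parent drug in plasma quantified by UPLC-MS/MS, parameters derived by non-compartmental analysis of mean concentration-time curves, oral suspension at 3 mg/mL.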
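For F (absolute bioavailability) in this document: parent drug in plasma quantified by UPLC-MS/MS, parameters derived by non-compartmental analysis of mean concentration-time curves, oral suspension at 3 mg/mL.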
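For F in this document: parent drug in plasma quantified by UPLC-MS/MS, parameters derived by non-compartmental analysis of mean concentration-time curves, oral suspension at 3 mg/mL.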
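For t1/2app (apparent terminal elimination half-life) in this document: parent drug in plasma quantified by UPLC-MS/MS, parameters derived by non-compartmental analysis of mean concentration-time curves, oral suspension at 3 mg/mL.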

Which AUC(0-t) (in vivo [1]; [14]) does the source give for `CS(=O)(=O)CCNCc1ccc(-c2ccc3ncnc(Nc4ccc(OCc5cccc(F)c5)c(Cl)c4)c3c2)o1` [Form I, Lapatinib monotosylate:caproic acid (1:2)] here?
The AUC(0-t) was 13300 ng·h/mL.

What about the CL/F (in vivo [1]; [14]) of the same compound?
The CL/F was 33.2 mL/min/kg.

What about the Cmax (in vivo [1]; [14]) of the same compound?
The Cmax was 3170 ng/mL.

And the bioavailability (in vivo [1]; plasma, po, 30 mg/kg)?
Its bioavailability is 32.4%.

And the Vd/F (in vivo [1]; [14])?
Its Vd/F is 6.83 L/kg.

What about the Tmax (in vivo [1]; plasma, po, 30 mg/kg, tmax, oral 30 mg/kg) of the same compound?
The Tmax was 2 h.

And the “exposure time after which very small amounts of Lapatinib monotosylate Form M1 were detected by XRPD” value [2]?
Its value is 23 days.

What about the “Lapatinib monotosylate observed in the co-crystal after 23 days” value [2] of the same compound?
Its value is “a little amount”.

And the AUC0INF [3, 15]?
Its AUC0INF is 15000 ng·h/mL.

And the “Absolute Bioavail.” value [3, 15]?
Its value is 35.5%.

And the Cmax [3, 15]?
The Cmax was 3018.6 ng/mL.

What about the MRTINF [3, 15] of the same compound?
The MRTINF was 3.85 h.

And the Tmax [3, 15]?
The Tmax was 1.6 h.

For `CS(=O)(=O)CCNCc1ccc(-c2ccc3ncnc(Nc4ccc(OCc5cccc(F)c5)c(Cl)c4)c3c2)o1` [Form II, Lapatinib monotosylate:caprylic acid (1:2)], which “stability in water suspension (XRPD finding)” value [4] is on record?
Its value is “recovering pure Form II after 24 hours”.

And the Cmax ([5]; oral 30 mg/kg, 30 mg/kg)?
The Cmax was 2814 ng/mL.

What about the AUCt ([5]; oral 30 mg/kg, 30 mg/kg) of the same compound?
The AUCt was 20778 ng·h/mL.

What about the Tmax ([5]; oral 30 mg/kg, 30 mg/kg) of the same compound?
The Tmax was 3 h.

What about the bioavailability (in vivo [1]; in vivo, 30 mg Lapatinib/kg) of the same compound?
Its bioavailability is 50.7%.

And the MRT last (in vivo [1]; in vivo, po, 30 mg/kg, oral 30 mg/kg)?
Its MRT last is 4.67 h.

And the “exposure time after which very small amounts of Lapatinib monotosylate Form M1 were detected by XRPD” value [2]?
The value was 60 days.

What about the “Lapatinib monotosylate observed in the co-crystal after 23 days” value [2] of the same compound?
Its value is “only traces”.

And the AUC0INF [3, 16]?
Its AUC0INF is 16700 ng·h/mL.

And the “Absolute Bioavail.” value [3, 16]?
Its value is 39.5%.

What about the Cmax [3, 16] of the same compound?
Its Cmax is 2813.5 ng/mL.

And the MRTINF [3, 16]?
The MRTINF was 4.67 h.

What about the Tmax [3, 16] of the same compound?
Its Tmax is 3 h.

With `CS(=O)(=O)CCNCc1ccc(-c2ccc3ncnc(Nc4ccc(OCc5cccc(F)c5)c(Cl)c4)c3c2)o1` [Form III, Lapatinib monohydrochloride:adipic acid (1:1)] as the compound, how does the “F (absolute bioavailability)” value ([5]; oral 30 mg/kg AUCt compared with iv 10 mg/kg) read?
The value was 44.98%.

What about the Cmax ([5]; oral 30 mg/kg, 30 mg/kg) of the same compound?
Its Cmax is 2567 ng/mL.

What about the AUCt ([5]; oral 30 mg/kg, 30 mg/kg) of the same compound?
The AUCt was 18433 ng·h/mL.

What about the Tmax ([5]; oral 30 mg/kg, 30 mg/kg) of the same compound?
Its Tmax is 3 h.

And the “t1/2app (apparent terminal elimination half-life)” value ([5]; oral 30 mg/kg, 30 mg/kg)?
The value was 3.13 h.

Which C0 ([6]; iv bolus 10 mg/kg in DMSO:PEG:WFI (10:40:50), read-out: C0 (extrapolated concentration at time 0)) does the source give for `CS(=O)(=O)CCNCc1ccc(-c2ccc3ncnc(Nc4ccc(OCc5cccc(F)c5)c(Cl)c4)c3c2)o1.Cc1ccc(S(=O)(=O)O)cc1` [Lapatinib ditosylate monohydrate, N-{3-chloro-4-[(3-fluorobenzyl)oxy]phenyl}-6-[5-({[2-(methylsulphonyl)ethyl]amino}methyl)furan-2-yl]quinazolin-4-amine bis(4-methylbenzenesulphonate)monohydrate, reference compound] here?
Its C0 is 20200 ng/mL.

What about the AUC(0-t) ([6]; iv bolus 10 mg/kg) of the same compound?
The AUC(0-t) was 13700 ng·h/mL.

And the MRT last ([6]; iv bolus 10 mg/kg)?
The MRT last was 1.54 h.

And the “Cmax/AUCt (apparent absorption rate)” value ([5]; oral 30 mg/kg)?
The value was 0.149 h⁻¹.

And the hygroscopicity [7]?
The hygroscopicity was “non-hygroscopic”.

What about the “solubility in aqueous media” value [7] of the same compound?
The value was “practically insoluble in aqueous media”.

What about the bioavailability (in vivo [1]; plasma, oral, 30 mg Lapatinib/kg) of the same compound?
The bioavailability was 57.5%.

What about the AUC(0-t) (in vivo [1]; [14]) of the same compound?
Its AUC(0-t) is 23600 ng·h/mL.

What about the CL/F (in vivo [1]; [14]) of the same compound?
The CL/F was 21.2 mL/min/kg.

What about the Cmax (in vivo [1]; [14]) of the same compound?
Its Cmax is 3520 ng/mL.

And the MRT last (in vivo [1]; [14])?
The MRT last was 4.28 h.

And the Vd/F (in vivo [1]; [14])?
The Vd/F was 4.38 L/kg.

And the half-life (in vivo [1]; plasma, po, 30 mg/kg, t1/2app (apparent terminal elimination half-life), oral 30 mg/kg)?
Its half-life is 2.39 h.

And the AUC (in vivo [8])?
The AUC was 12300 ng·h/mL.

What about the MRT inf (in vivo [8]) of the same compound?
The MRT inf was 35.9 h.

What about the AUC (in vivo [9]) of the same compound?
The AUC was 18400 ng·h/mL.

And the Cmax (in vivo [9])?
Its Cmax is 3510 ng/mL.

And the MRT inf (in vivo [9])?
Its MRT inf is 4.31 h.

And the Tmax (in vivo [9])?
The Tmax was 2 h.

What about the k12 ([10]; IV model) of the same compound?
Its k12 is 0.616.

What about the k13 ([10]; IV model) of the same compound?
The k13 was 3.14.

What about the k21 ([10]; IV model) of the same compound?
The k21 was 0.00202.

And the k31 ([10]; IV model)?
Its k31 is 1.47.

And the kel ([10]; IV model)?
The kel was 1.6.

And the v ([10]; IV model)?
Its v is 0.358.

What about the AUC0INF ([10]; derived from PK modelling, IV) of the same compound?
The AUC0INF was 14100 ng·h/mL.

And the T12 ([10]; derived from PK modelling, IV)?
The T12 was 176 h.

And the AUC0INF [3]?
The AUC0INF was 18400 ng·h/mL.

And the “Absolute Bioavail.” value [3]?
Its value is 43.5%.

What about the lag1 ([3]; oral model, first (immediate) release) of the same compound?
Its lag1 is 0.

For `CS(=O)(=O)CCNCc1ccc(-c2ccc3ncnc(Nc4ccc(OCc5cccc(F)c5)c(Cl)c4)c3c2)o1` [Lapatinib], which pKa [11] is on record?
The pKa was roughly 5.4.

What about the “increase of bioavailability when co-administered with a high fat meal” value ([12]; compared with fasting conditions, Ratain and Cohen) of the same compound?
Its value is 325%.

What about the “drug class (solubility/permeability)” value ([12]; low solubility-good permeability, Custodio et al.) of the same compound?
The value was “Class II”.

For `CCCCCC(=O)O` [caproic acid], which pKa [13] is on record?
The pKa was 4.8.

Which pKa [13] does the source give for `CCCCCCCC(=O)O` [caprylic acid] here?
The pKa was 4.91.
